Assay results taken from patent US5753617A, “Peptide inhibitors of cellular adhesion” (Centocor, Inc., priority 1995, dated 1998).
Where two headings read alike, the source gives them in different places. One block for each molecule: values may come before it. Where a SMILES comes first, the peptide text is derived from it. Bridges are numbered along the chain shown (N, C = ends). [ ]: non-standard residue; d: D form. Ava = NCCCCC(=O)O

Tests used:
P-selectin = molecular target: T1, P-selectin (Homo sapiens, UniProt P16109); assay: Inhibition of human neutrophil adhesion to purified P-selectin immobilized on plastic wells; type: cell-based; conditions: inhibiting the binding of human neutrophils to P-selectin
T1 construct: P-selectin is isolated from human platelet lysates; from tissue; host or cells: human platelets (outdated platelet packs from a blood bank)
T1 sequence (P16109 42-830): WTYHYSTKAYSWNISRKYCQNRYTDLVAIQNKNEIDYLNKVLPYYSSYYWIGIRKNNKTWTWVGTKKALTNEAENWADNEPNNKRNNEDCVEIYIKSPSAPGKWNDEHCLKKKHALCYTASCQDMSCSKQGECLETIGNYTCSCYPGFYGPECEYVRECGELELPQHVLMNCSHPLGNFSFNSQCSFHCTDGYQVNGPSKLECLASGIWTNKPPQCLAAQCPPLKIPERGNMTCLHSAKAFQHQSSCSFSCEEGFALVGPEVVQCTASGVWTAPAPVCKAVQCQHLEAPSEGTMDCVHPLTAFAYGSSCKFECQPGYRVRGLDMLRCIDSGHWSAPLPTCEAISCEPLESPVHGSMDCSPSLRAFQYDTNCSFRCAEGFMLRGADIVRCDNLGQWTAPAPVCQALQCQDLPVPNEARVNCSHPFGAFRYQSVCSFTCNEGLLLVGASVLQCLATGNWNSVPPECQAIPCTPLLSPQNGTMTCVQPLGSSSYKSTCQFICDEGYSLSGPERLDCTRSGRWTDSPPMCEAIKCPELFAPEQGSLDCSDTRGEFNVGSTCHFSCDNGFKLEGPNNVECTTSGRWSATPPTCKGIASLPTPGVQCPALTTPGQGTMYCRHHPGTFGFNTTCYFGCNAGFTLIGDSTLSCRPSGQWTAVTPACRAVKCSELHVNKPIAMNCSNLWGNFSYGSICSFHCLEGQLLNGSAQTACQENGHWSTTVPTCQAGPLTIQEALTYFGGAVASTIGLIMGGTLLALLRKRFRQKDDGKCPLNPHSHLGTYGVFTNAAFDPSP
Summary of the method: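 Isolated human neutrophils (2×10^5 per well) in HBSS with Ca2+/Mg2+ and HSA added to wells coated overnight at 4° C with platelet-derived P-selectin (5 micrograms/mL), HSA-blocked; 20 min at 22° C. Nonadherent cells removed by inverted centrifugation at 150 g; adherent cells quantified by myeloperoxidase activity.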

[1] = disulfide bond, water

IC50 (P-selectin): 7 µM
SMILES: CC(C)[C@@H](NC(=O)[C@@H](Cc1c[nH]c2ccccc12)NC(=O)[C@H](NC(=O)[C@@H](Cc1c[nH]c2ccccc12)NC(=O)[C@H]1CSSC[C@@H](NC(=O)[C@@H](CCCCN)NC(=O)[C@H](N)CCCNC(=N)N)C(=O)N[C@H](C)C(=O)N[C@@H](Cc2ccccc2)C(=O)N1)[C@H](C)O)C(N)=O [(11)] (H-[dR][dK][dC][dA]F[dC][dW][dT][dW][dV]-NH2; disulfide 3-6)
ring closure, yield of all isomers ([1]; from CC(C)[C@@H](NC(=O)[C@@H](Cc1c[nH]c2ccccc12)NC(=O)[C@H](NC(=O)[C@@H](Cc1c[nH]c2ccccc12)NC(=O)[C@@H](CS)NC(=O)[C@H](Cc1ccccc1)NC(=O)[C@@H](C)NC(=O)[C@@H](CS)NC(=O)[C@@H](CCCCN)NC(=O)[C@H](N)CCCNC(=N)N)[C@H](C)O)C(N)=O, air, Cu wire, dilute AcOH/NH4OH pH 8.5, 3.08 mM): 2.4%

IC50 (P-selectin): 48 µM
SMILES: CC(C)[C@@H](NC(=O)[C@@H](Cc1c[nH]c2ccccc12)NC(=O)[C@H](NC(=O)[C@@H](Cc1c[nH]c2ccccc12)NC(=O)[C@H]1CSSC[C@@H](NC(=O)[C@@H](CCCCN)NC(=O)[C@H](N)CCCNC(=N)N)C(=O)N[C@H](Cc2ccccc2)C(=O)NCC(=O)N1)[C@H](C)O)C(N)=O [(12)] (H-[dR][dK][dC][dF]G[dC][dW][dT][dW][dV]-NH2; disulfide 3-6)
ring closure, yield of all isomers ([1]; from CC(C)[C@@H](NC(=O)[C@@H](Cc1c[nH]c2ccccc12)NC(=O)[C@H](NC(=O)[C@@H](Cc1c[nH]c2ccccc12)NC(=O)[C@@H](CS)NC(=O)CNC(=O)[C@@H](Cc1ccccc1)NC(=O)[C@@H](CS)NC(=O)[C@@H](CCCCN)NC(=O)[C@H](N)CCCNC(=N)N)[C@H](C)O)C(N)=O, DMSO, 0.255 mM, 16.0 h): 18.7%

IC50 (P-selectin): 50 µM
SMILES: CC(C)[C@@H](NC(=O)[C@@H](Cc1c[nH]c2ccccc12)NC(=O)[C@H](NC(=O)[C@@H](Cc1c[nH]c2ccccc12)NC(=O)[C@H]1CSSC[C@@H](NC(=O)[C@@H](CCCCN)NC(=O)[C@H](N)CCCNC(=N)N)C(=O)NCC(=O)N[C@H](Cc2ccccc2)C(=O)N1)[C@H](C)O)C(N)=O [(13)] (H-[dR][dK][dC]G[dF][dC][dW][dT][dW][dV]-NH2; disulfide 3-6)
ring closure, yield of all isomers ([1]; from CC(C)[C@@H](NC(=O)[C@@H](Cc1c[nH]c2ccccc12)NC(=O)[C@H](NC(=O)[C@@H](Cc1c[nH]c2ccccc12)NC(=O)[C@@H](CS)NC(=O)[C@@H](Cc1ccccc1)NC(=O)CNC(=O)[C@@H](CS)NC(=O)[C@@H](CCCCN)NC(=O)[C@H](N)CCCNC(=N)N)[C@H](C)O)C(N)=O, DMSO, 0.242 mM, 16.0 h): 10.7%

IC50 (P-selectin): 49 µM
SMILES: CC(C)[C@@H](NC(=O)[C@@H](Cc1c[nH]c2ccccc12)NC(=O)[C@H](NC(=O)[C@@H](Cc1c[nH]c2ccccc12)NC(=O)[C@H]1CSSC[C@@H](NC(=O)[C@@H](CCCCN)NC(=O)[C@H](N)CCCNC(=N)N)C(=O)N[C@@H](Cc2ccccc2)C(=O)NCC(=O)N1)[C@H](C)O)C(N)=O [(18)] (H-[dR][dK][dC]FG[dC][dW][dT][dW][dV]-NH2; disulfide 3-6)
ring closure, yield of all isomers ([1]; from CC(C)[C@@H](NC(=O)[C@@H](Cc1c[nH]c2ccccc12)NC(=O)[C@H](NC(=O)[C@@H](Cc1c[nH]c2ccccc12)NC(=O)[C@@H](CS)NC(=O)CNC(=O)[C@H](Cc1ccccc1)NC(=O)[C@@H](CS)NC(=O)[C@@H](CCCCN)NC(=O)[C@H](N)CCCNC(=N)N)[C@H](C)O)C(N)=O, DMSO, 0.253 mM): 13.7%
ring closure, yield of all isomers ([1]; from CC(C)[C@@H](NC(=O)[C@@H](Cc1c[nH]c2ccccc12)NC(=O)[C@H](NC(=O)[C@@H](Cc1c[nH]c2ccccc12)NC(=O)[C@@H](CS)NC(=O)CNC(=O)[C@H](Cc1ccccc1)NC(=O)[C@@H](CS)NC(=O)[C@@H](CCCCN)NC(=O)[C@H](N)CCCNC(=N)N)[C@H](C)O)C(N)=O, DMSO, 0.253 mM, 16.0 h): 13.7%

IC50 (P-selectin): 23 µM
SMILES: CC(C)[C@@H](NC(=O)[C@@H](Cc1c[nH]c2ccccc12)NC(=O)[C@H](NC(=O)[C@@H](Cc1c[nH]c2ccccc12)NC(=O)[C@H]1CSSC[C@@H](NC(=O)[C@@H](CCCCN)NC(=O)[C@H](N)CCCNC(=N)N)C(=O)NCCCCC(=O)N1)[C@H](C)O)C(N)=O [(21)] (H-[dR][dK][dC][Ava][dC][dW][dT][dW][dV]-NH2; disulfide 3-5)
ring closure, yield of all isomers ([1]; from CC(C)[C@@H](NC(=O)[C@@H](Cc1c[nH]c2ccccc12)NC(=O)[C@H](NC(=O)[C@@H](Cc1c[nH]c2ccccc12)NC(=O)[C@@H](CS)NC(=O)CCCCNC(=O)[C@@H](CS)NC(=O)[C@@H](CCCCN)NC(=O)[C@H](N)CCCNC(=N)N)[C@H](C)O)C(N)=O, DMSO, 0.241 mM, 16.0 h): 13.2%

IC50 (P-selectin): 17 µM
SMILES: CC(C)[C@@H](NC(=O)[C@@H](Cc1c[nH]c2ccccc12)NC(=O)[C@H](NC(=O)[C@@H](Cc1c[nH]c2ccccc12)NC(=O)[C@H]1CSSC[C@@H](NC(=O)[C@@H](CCCCN)NC(=O)[C@H](N)CCCNC(=N)N)C(=O)NCC(=O)NCC(=O)N1)[C@H](C)O)C(N)=O [(25)] (H-[dR][dK][dC]GG[dC][dW][dT][dW][dV]-NH2; disulfide 3-6)
ring closure, yield of all isomers ([1]; from CC(C)[C@@H](NC(=O)[C@@H](Cc1cn(C=O)c2ccccc12)NC(=O)[C@H](NC(=O)[C@@H](Cc1cn(C=O)c2ccccc12)NC(=O)[C@@H](CS)NC(=O)CNC(=O)CNC(=O)[C@@H](CS)NC(=O)[C@@H](CCCCN)NC(=O)[C@H](N)CCCNC(=N)N)[C@H](C)O)C(N)=O, DMSO, 1.4 mM, 16.0 h, 2 steps): 2.4%

IC50 (P-selectin): 22 µM
SMILES: CC(C)[C@H](NC(=O)[C@H](Cc1c[nH]c2ccccc12)NC(=O)[C@@H](NC(=O)[C@H](Cc1c[nH]c2ccccc12)NC(=O)[C@@H]1CSSC[C@H](NC(=O)[C@@H](N)CCCCN)C(=O)NCC(=O)NCC(=O)N1)[C@@H](C)O)C(N)=O [(27)] (H-KCGGCWTWV-NH2; disulfide 2-5)
ring closure, yield of all isomers ([1]; from CC(C)[C@H](NC(=O)[C@H](Cc1c[nH]c2ccccc12)NC(=O)[C@@H](NC(=O)[C@H](Cc1c[nH]c2ccccc12)NC(=O)[C@H](CS)NC(=O)CNC(=O)CNC(=O)[C@H](CS)NC(=O)[C@@H](N)CCCCN)[C@@H](C)O)C(N)=O, K3Fe(CN)6/NH4OH (half) and DMSO (half), 0.37 mM, 16.0 h): 10.9%

IC50 (P-selectin): 325 µM
SMILES: CC(C)[C@H](NC(=O)[C@H](Cc1c[nH]c2ccccc12)NC(=O)[C@@H](NC(=O)[C@H](Cc1c[nH]c2ccccc12)NC(=O)[C@@H]1CSSC[C@H](N)C(=O)NCC(=O)NCC(=O)N1)[C@@H](C)O)C(N)=O [(29)] (H-CGGCWTWV-NH2; disulfide 1-4)
ring closure, yield of all isomers ([1]; from CC(C)[C@H](NC(=O)[C@H](Cc1c[nH]c2ccccc12)NC(=O)[C@@H](NC(=O)[C@H](Cc1c[nH]c2ccccc12)NC(=O)[C@H](CS)NC(=O)CNC(=O)CNC(=O)[C@@H](N)CS)[C@@H](C)O)C(N)=O, DMSO, 0.285 mM, 16.0 h): 8.5%

IC50 (P-selectin): 468 µM
SMILES: CC[C@H](C)[C@H](NC(=O)[C@H](CCCCN)NC(=O)[C@@H](N)CCCNC(=N)N)C(=O)NCC(=O)NCC(=O)N[C@H]1CSSC[C@@H](C(N)=O)NC(=O)[C@H](Cc2c[nH]c3ccccc23)NC(=O)[C@H]([C@@H](C)O)NC(=O)[C@H](Cc2c[nH]c3ccccc23)NC1=O [(33)] (H-RKIGGCWTWC-NH2; disulfide 6-10)
ring closure, yield of all isomers ([1]; from CC[C@H](C)[C@H](NC(=O)[C@H](CCCCN)NC(=O)[C@@H](N)CCCNC(=N)N)C(=O)NCC(=O)NCC(=O)N[C@@H](CS)C(=O)N[C@@H](Cc1c[nH]c2ccccc12)C(=O)N[C@H](C(=O)N[C@@H](Cc1c[nH]c2ccccc12)C(=O)N[C@@H](CS)C(N)=O)[C@@H](C)O, DMSO, 0.7 mM, 25.0 °C, 16.0 h): 5.3%

IC50 (P-selectin): 205 µM
SMILES: CC(C)[C@@H](NC(=O)[C@@H](Cc1c[nH]c2ccccc12)NC(=O)[C@H](NC(=O)[C@@H](Cc1c[nH]c2ccccc12)NC(=O)[C@H]1CSSC[C@@H](NC(=O)[C@@H](CCCCN)NC(=O)[C@H](N)CCCNC(=N)N)C(=O)N[C@@H](C)C(=O)N[C@@H](Cc2ccccc2)C(=O)N1)[C@H](C)O)C(N)=O [(37)] (H-[dR][dK][dC]AF[dC][dW][dT][dW][dV]-NH2; disulfide 3-6)
ring closure, yield of all isomers ([1]; from CC(C)[C@@H](NC(=O)[C@@H](Cc1c[nH]c2ccccc12)NC(=O)[C@H](NC(=O)[C@@H](Cc1c[nH]c2ccccc12)NC(=O)[C@@H](CS)NC(=O)[C@H](Cc1ccccc1)NC(=O)[C@H](C)NC(=O)[C@@H](CS)NC(=O)[C@@H](CCCCN)NC(=O)[C@H](N)CCCNC(=N)N)[C@H](C)O)C(N)=O, air/Cu wire, ammonium acetate, 0.731 mM, 22.0 h): 1.3%
